Data on one compound can be found in patent publication US20060281806A1, “Treatment and inhibition of disease conditions using flexible heteroarotinoids” (priority 2005, published 2006).

The test system of data set [1] is Raldh2 −/− embryos. Briefly: Rescue of Raldh2 −/− embryos and teratogenesis. As to conditions: for No. of −/− rescued / No. of −/− unrescued / Teratogenesis (no. of embryos): E10.25 embryos. The data set is classed as in vivo, mouse. On the procedure:
Dosages varied from 0.025 to 25 mg/kg.

Data set [2] has as its system EAhy.926 endothelial cells. Briefly: Endothelial tube branching on matrigel. The class given is cell-based. As to conditions: various concentrations (1, 5, 10 μM); scored after twenty hours. From the text: The graph on the left provides quantification of the endothelial branches for each treatment dose.
Data set [3] concerns blood vessel density in bFGF/VEGF-treated CAMs. Briefly: Chorioallantoic membrane (CAM) assay. The data set is classed as in vivo, chick. As to conditions: 5 μM SHetA2; versus bFGF/VEGF-treated CAMs. On the procedure:
FIG. 8. Effect of 5 μM SHetA2 on blood vessel density in the CAM assay. The mean± SEM blood vessel density per treatment as compared to bFGF/VEGF-treated CAMs; *=p<0.05 and **=p<0.001 as compared to bFGF/VEGF-treated CAMs as determined by one-way ANOVA and Neuman-Keuls post-test.
The CAM assay that was used is based upon the original procedure by Jakob et al. (36) with modifications made by our laboratory (37, 38) (see FIG. 8).

Data set [4] has as its system C6 glioma cells injected into the brains of rats. Briefly: Rat glioma (brain cancer) model, MRI. The class given is in vivo. As to conditions: Monday, Wednesday and Friday. On the procedure: FIG. 9. SHetA2 inhibition of Angiogenesis. C6 glioma cells were injected into the brains of 2 rats. One week later, one rat was gavaged with 60 mg/kg/day SHetA2 on each Monday, Wednesday and Friday. Blood vessels were imaged by MRI.
FIG. 10. […] C6 glioma cells were injected into the brains of 2 rats. One week later, one rat was gavaged with 60 mg/kg/day SHetA2 on each Monday, Wednesday and Friday. The blood flow was measured by MRI imaging.
FIG. 11. SHetA2 inhibition of glioma tumor growth. C6 glioma cells were injected into the brains of 2 rats. One week later, one rat was gavaged with 60 mg/kg/day SHetA2 on each Monday, Wednesday and Friday. The tumor size was measured by MRI imaging.
In this in vivo model, glioma cells are injected into the brains of rats and the growth of the tumor and development of blood vessels in the tumor is measured by magnetic resonance imaging (MRI).

The subject of data set [5] is ovarian carcinoma organotypic cultures. Briefly: Organotypic culture model of ovarian tumors. The class given is cell-based, human. As to conditions: 1 μM retinoid in media; 3, 7 or 14 days. On the procedure:
FIG. 17. Retinoid effects on ovarian carcinoma organotypic cultures. Organotypic cultures of OVCAR-3 (A, B, E, F, I and J), Caov-3 (C and G), SK-OV-3 (D and H), and O2 (K and L) were grown in the absence (−, top row and K) or presence (+, middle row and I, J and L) of retinoid HetA4 at a concentration of 1 μM in the media. All sections were stained with H&E except for I, which was stained with PAS to detect glycoproteins and glandular differentiantion, and J, which was stained with the TUNEL assay to detect apoptosis. All magnifications are 40×.
To test our hypotheses, we evaluated the effects of clinically achievable concentrations of 4-HPR and Flex-Hets on growth, differentiation and apoptosis in ovarian tissue. A series of compounds with a variety of receptor activation profiles were evaluated. In order to evaluate therapeutic effects, we developed an organotypic culture model of ovarian tumors by growing established cell lines and primary cultures inside collagen gels. Monolayer cultures of cells are not accurate representations of in vivo tissue because they lack the types of interactions that cells have with other cells and with the extracellular matrix in vivo. These interactions are known to influence gene expression and thus the constitution and behavior of cells. In our organotypic model, the growth of tumor cells inside the collagen allows a representation of tumors that have invaded stromal tissue. In the presence of fibroblasts, established cell lines and primary cultures of ovarian cancer formed colonies inside the collagen, while normal or benign ovarian epithelial cells remained as single cells inside the collagen. Human ovarian cancer cell lines (OVCAR-3, Caov-3, SK-OV-3, A2780, UCI 101) and primary human cultures (borderline ovarian tumor (O1), serous papillary tumor (O2), benign ovarian cyst (O3)) were cultured inside and on top of a collagen gel seeded with 3T3 fibroblasts for one week. After further incubation in the presence or absence of 1 μM retinoid (media concentration) for 3, 7 or 14 days, cultures were fixed and sectioned for immunohistochemical analysis.

For data set [6] the following is noted: RAID pharmacokinetic studies (35); cited from earlier work.
The mark [7] stands for this setting: dose 2.5 mg/kg oral to pregnant mice.
Setting [8] is: dose 10 mg/kg oral to pregnant mice.
The mark [9] stands for this setting: dose 25 mg/kg oral to pregnant mice.
[10] abbreviates: oral 60 mg/kg/day, versus untreated control.

Entries after “also recorded” stand apart in the source; their conditions may differ.

Regarding `CC1(C)CC(C)(C)c2cc(NC(=S)Nc3ccc([N+](=O)[O-])cc3)ccc2S1` [SHetA2], in data set [1] (2.5 mg/kg to pregnant mothers), the “rescue of Raldh2 −/− embryos (phenotype)” value is listed as “no rescue”. Also, in data set [1] (10 or 25 mg/kg to pregnant mothers), the “rescue of Raldh2 −/− embryos (phenotype)” value is given as “no rescue”. In data set [1] (any dosage (2.5, 10, 25 mg/kg)), the teratogenesis in litters result is recorded as “no teratogenesis was observed”. Besides, in data set [1] (setting [7]), the “No. of −/− rescued” value amounted to 0, the “No. of −/− unrescued” value amounted to 1 and the “Teratogenesis (no. of embryos)” value is 0. In data set [1] (setting [8]), the “No. of −/− rescued” value amounted to 0, the “No. of −/− unrescued” value was 5 and the “Teratogenesis (no. of embryos)” value stood at 0. For the same compound, in data set [1] (setting [9]), the “No. of −/− rescued” value was found to be 0, the “No. of −/− unrescued” value is given as 1 and the “Teratogenesis (no. of embryos)” value was found to be 0. Also, in data set [2], the “endothelial tube branching (in vitro angiogenesis)” value is reported as “dose-responsive inhibition of angiogenesis”. The “angiogenesis (blood vessel density) in CAM assay” value in data set [3] is recorded as “inhibits angiogenesis”. Moreover, the “blood flow (MRI)” value in data set [4] (gavage 60 mg/kg/day) is listed as “inhibition of blood flow”. In data set [4] (setting [10]), the “angiogenesis of glioma tumors (MRI)” value is recorded as “inhibited” and the “growth of glioma tumors (MRI)” value is “inhibited”. Also, in data set [5], the “induction of apoptosis (TUNEL) in organotypic cultures” value was “Apoptosis was induced; also recorded: highest level of apoptosis”; the “regulation of growth, differentiation and apoptosis, rank among eleven retinoids” value was “most potent regulator of growth, differentiation and apoptosis”. Also, in data set [6], the “concentrations achieved and maintained in mice” value is “micromolar concentrations”.
